Molecular target: T1, VLA-4 (α4β1 integrin) (Homo sapiens, UniProt P05556+P13612)
T1 construct: followed by 10 µl of Ramos cell-derived VLA-4; endogenous in cells; host or cells: Ramos cells (VLA-4 preparation derived from the cells)
Experiment: VLA-4 / VCAM-1 Screening Assay (solid-phase, dual antibody ELISA)
Details: inhibition of binding of Ramos cell-derived VLA-4 to immobilized recombinant human VCAM-1
Experimental: VLA-4 / VCAM-1 Screening Assay
VLA-4 antagonist activity, defined as ability to compete for binding to immobilized VCAM-1, was quantitated using a solid-phase, dual antibody ELISA. VLA-4 (α4β1 integrin) bound to VCAM-1 was detected by a complex of anti-integrin β1 antibody: HRP-conjugated anti-mouse IgG: chromogenic substrate (K-Blue). Initially, this entailed coating 96 well plates (Nunc Maxisorp) with recombinant human VCAM-1 (0.4 µg in 100 µl PBS), sealing each plate and then allowing the plates to stand at 4°C for ^~18 hr.

T1 sequence (P13612 34-1032): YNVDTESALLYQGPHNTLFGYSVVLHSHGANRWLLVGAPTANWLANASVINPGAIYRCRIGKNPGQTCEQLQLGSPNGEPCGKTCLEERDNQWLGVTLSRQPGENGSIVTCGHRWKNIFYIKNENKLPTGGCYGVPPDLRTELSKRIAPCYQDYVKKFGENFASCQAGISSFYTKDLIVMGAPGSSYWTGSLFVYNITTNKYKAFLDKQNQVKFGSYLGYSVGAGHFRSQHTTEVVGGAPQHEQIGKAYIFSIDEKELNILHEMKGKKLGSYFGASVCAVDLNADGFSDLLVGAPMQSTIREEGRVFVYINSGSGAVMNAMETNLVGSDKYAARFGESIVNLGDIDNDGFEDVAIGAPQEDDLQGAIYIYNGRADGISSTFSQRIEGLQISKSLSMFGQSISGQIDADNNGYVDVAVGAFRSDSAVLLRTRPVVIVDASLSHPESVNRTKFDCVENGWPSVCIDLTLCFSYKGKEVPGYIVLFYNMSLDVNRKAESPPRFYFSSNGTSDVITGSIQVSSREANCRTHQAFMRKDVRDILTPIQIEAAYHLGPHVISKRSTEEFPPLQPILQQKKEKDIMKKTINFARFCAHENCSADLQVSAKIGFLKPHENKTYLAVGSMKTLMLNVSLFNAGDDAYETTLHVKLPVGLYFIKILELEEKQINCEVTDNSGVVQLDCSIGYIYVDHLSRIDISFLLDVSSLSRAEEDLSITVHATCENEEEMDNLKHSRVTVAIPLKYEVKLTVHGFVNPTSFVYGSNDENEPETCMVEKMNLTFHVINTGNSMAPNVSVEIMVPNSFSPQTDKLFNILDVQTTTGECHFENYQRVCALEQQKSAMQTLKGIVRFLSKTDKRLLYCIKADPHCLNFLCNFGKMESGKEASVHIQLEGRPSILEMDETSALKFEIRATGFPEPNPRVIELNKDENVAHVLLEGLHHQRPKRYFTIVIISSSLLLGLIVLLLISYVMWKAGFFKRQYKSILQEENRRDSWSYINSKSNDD
T1 sequence (P05556 21-798): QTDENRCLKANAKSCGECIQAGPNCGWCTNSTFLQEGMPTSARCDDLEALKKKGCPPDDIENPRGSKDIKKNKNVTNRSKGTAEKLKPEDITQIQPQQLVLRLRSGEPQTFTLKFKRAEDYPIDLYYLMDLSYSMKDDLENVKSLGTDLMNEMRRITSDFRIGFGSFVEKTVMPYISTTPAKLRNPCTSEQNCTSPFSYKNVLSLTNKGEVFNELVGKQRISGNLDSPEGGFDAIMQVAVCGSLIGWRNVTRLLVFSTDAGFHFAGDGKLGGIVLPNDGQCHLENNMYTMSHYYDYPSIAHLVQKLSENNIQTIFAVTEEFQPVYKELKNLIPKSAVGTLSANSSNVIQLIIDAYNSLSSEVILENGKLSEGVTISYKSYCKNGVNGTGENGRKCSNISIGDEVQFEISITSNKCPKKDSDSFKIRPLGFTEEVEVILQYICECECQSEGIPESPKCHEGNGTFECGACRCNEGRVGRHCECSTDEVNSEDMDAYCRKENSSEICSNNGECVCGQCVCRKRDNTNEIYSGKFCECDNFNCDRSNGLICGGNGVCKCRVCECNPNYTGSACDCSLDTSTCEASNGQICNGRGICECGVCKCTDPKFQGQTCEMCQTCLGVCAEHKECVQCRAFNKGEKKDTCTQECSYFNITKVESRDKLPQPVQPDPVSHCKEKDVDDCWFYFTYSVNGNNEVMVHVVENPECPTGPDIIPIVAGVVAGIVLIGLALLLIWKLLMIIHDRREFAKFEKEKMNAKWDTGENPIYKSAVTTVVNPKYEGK

`COCCC1(C(=O)N[C@@H](Cc2ccc(NC(=O)c3c(Cl)cccc3Cl)cc2)C(=O)O)CCCC1` [Example 59, 4-[[(2,6-dichlorophenyl)carbonyl]amino]-N-[[1-(2-methoxyethyl)cyclopentyl]carbonyl]-L-phenylalanine] was tested. Which IC50 did it give?
Its IC50 is 0.26 nM.

— patent EP1005446B1, “N-AROYLPHENYLALANINE DERIVATIVES” (priority 1997, dated 1999)
